Data on 4 molecules can be found in ChEMBL document CHEMBL3045319, “Synthesis, antitumor activity, and structureactivity relationship of some 4H-pyrano[3,2-h]quinoline and 7H-pyrimido[4,5:6,5]pyrano[3,2-h]quinoline derivatives” (Med Chem Res, 2013).

≈ marks a conversion by molar mass, not a printed value. Bounds are passed on as bounds.

Assay [1] deals with HepG2. Description: Cytotoxicity against Homo sapiens (human) HepG2 cells after 48 hr by MTT assay. It counts as functional, cell-based. (In general: Tetrazolium dyes change colour on reduction, which living cells bring about.)
Assay [2] relates to HepG2. Description: Cytotoxicity against Homo sapiens (human) HepG2 cells assessed as cell viability at 1.56 ug/ml after 48 hr by MTT assay relative to control. The format is functional. The conditions noted are these: HepG2, 48 h, read-out: Activity.
Assay [3] concerns HepG2. As to the kind of experiment: Cytotoxicity against Homo sapiens (human) HepG2 cells assessed as cell viability at 3.125 ug/ml after 48 hr by MTT assay relative to control. It counts as functional. The conditions noted are these: HepG2, 48 h, read-out: Activity.
In assay [4] the test system is HepG2. As to the kind of experiment: Cytotoxicity against Homo sapiens (human) HepG2 cells assessed as cell viability at 6.25 ug/ml after 48 hr by MTT assay relative to control. It counts as functional. The conditions noted are these: HepG2, 48 h, read-out: Activity.
For assay [5], the system named is HepG2. Description: Cytotoxicity against Homo sapiens (human) HepG2 cells assessed as cell viability at 12.5 ug/ml after 48 hr by MTT assay relative to control. It counts as functional. The conditions noted are these: HepG2, 48 h, read-out: Activity.
Assay [6] concerns HepG2. Description: Cytotoxicity against Homo sapiens (human) HepG2 cells assessed as cell viability at 25 ug/ml after 48 hr by MTT assay relative to control. The conditions noted are these: HepG2, 48 h, read-out: Activity. The format is functional.
The subject of assay [7] is HepG2. As to the kind of experiment: Cytotoxicity against Homo sapiens (human) HepG2 cells assessed as cell viability at 50 ug/ml after 48 hr by MTT assay relative to control. The format is functional. The conditions noted are these: HepG2, 48 h, read-out: Activity.
Assay [8] can be described thus: Cytotoxicity against Homo sapiens (human) HCT cells after 48 hr by MTT assay. It counts as functional, cell-based.
Assay [9] in a line: Cytotoxicity against Homo sapiens (human) HCT cells assessed as cell viability at 1.56 ug/ml after 48 hr by MTT assay relative to control. It counts as functional. The conditions noted are these: read-out: Activity.
A short description of assay [10]: Cytotoxicity against Homo sapiens (human) HCT cells assessed as cell viability at 6.25 ug/ml after 48 hr by MTT assay relative to control. The conditions noted are these: read-out: Activity. It counts as functional.
Assay [11] relates to MCF7. Description: Cytotoxicity against Homo sapiens (human) MCF7 cells assessed as cell viability at 1.56 ug/ml after 48 hr by MTT assay relative to control. The conditions noted are these: MCF7, 48 h, read-out: Activity. The format is functional.
The subject of assay [12] is MCF7. Description: Cytotoxicity against Homo sapiens (human) MCF7 cells assessed as cell viability at 3.125 ug/ml after 48 hr by MTT assay relative to control. It counts as functional. The conditions noted are these: MCF7, 48 h, read-out: Activity.
In assay [13] the test system is MCF7. Description: Cytotoxicity against Homo sapiens (human) MCF7 cells assessed as cell viability at 12.5 ug/ml after 48 hr by MTT assay relative to control. The format is functional. The conditions noted are these: MCF7, 48 h, read-out: Activity.
Assay [14] has as its system MCF7. Description: Cytotoxicity against Homo sapiens (human) MCF7 cells assessed as cell viability at 6.25 ug/ml after 48 hr by MTT assay relative to control. The format is functional. The conditions noted are these: MCF7, 48 h, read-out: Activity.
Assay [15] relates to MCF7. As to the kind of experiment: Cytotoxicity against Homo sapiens (human) MCF7 cells assessed as cell viability at 50 ug/ml after 48 hr by MTT assay relative to control. It counts as functional. The conditions noted are these: MCF7, 48 h, read-out: Activity.
Assay [16] deals with MCF7. Description: Cytotoxicity against Homo sapiens (human) MCF7 cells assessed as cell viability at 25 ug/ml after 48 hr by MTT assay relative to control. The format is functional. The conditions noted are these: MCF7, 48 h, read-out: Activity.
Assay [17] can be described thus: Cytotoxicity against Homo sapiens (human) HCT cells assessed as cell viability at 3.125 ug/ml after 48 hr by MTT assay relative to control. The conditions noted are these: read-out: Activity. It counts as functional.
Assay [18] can be described thus: Cytotoxicity against Homo sapiens (human) HCT cells assessed as cell viability at 12.5 ug/ml after 48 hr by MTT assay relative to control. The conditions noted are these: read-out: Activity. It counts as functional.
The nature of assay [19]: Cytotoxicity against Homo sapiens (human) HCT cells assessed as cell viability at 25 ug/ml after 48 hr by MTT assay relative to control. The format is functional. The conditions noted are these: read-out: Activity.
Assay [20] in a line: Cytotoxicity against Homo sapiens (human) HCT cells assessed as cell viability at 50 ug/ml after 48 hr by MTT assay relative to control. It counts as functional. The conditions noted are these: read-out: Activity.
The test system of assay [21] is MCF7. Description: Cytotoxicity against Homo sapiens (human) MCF7 cells after 48 hr by MTT assay. The conditions noted are these: MCF7, 48 h. It counts as functional, cell-based.
[22] abbreviates: Homo sapiens, HepG2, 48 h, read-out: IC50.

With `N#CC1=C(N)Oc2c(ccc3cccnc23)C1c1ccc(Cl)cc1` (centres undefined), the IC50 in assay [1] (setting [22]) is greater than 50 µg/mL; in [8] it was 24 µg/mL (≈ 71.9 µM); in [21], 24.9 µg/mL (≈ 74.6 µM). The viability at 1.56 µg/mL was 79.6% in assay [2], 100% in assay [9] and 100% in [11]. Further, the viability at 3.125 µg/mL turned out to be 68.5% in assay [3], 91.6% in assay [12] and 92.6% in assay [17]. Moreover, the viability at 6.25 µg/mL in assay [4] is 68.2%; in assay [10] it was 76.8%; in assay [14], 82.5%. Further, the viability at 12.5 µg/mL came to 63.5% in assay [5], 72.9% in assay [13] and 67.4% in [18]. Also, the values for the viability at 25 µg/mL in [6], in [16] and in assay [19] were 57.2%, 49.8% and 48.2%, respectively. The results for the viability at 50 µg/mL in assay [7], in [15] and in assay [20] were 52.8%, 26.8% and 27.4%, respectively.

Take `N#CC1=C(N)Oc2c(ccc3cccnc23)C1c1ccc(Br)cc1` (centres undefined): the IC50 result in assay [1] (hepg2) is “Not Active”; in assay [8] it was 43.7 µg/mL (≈ 116 µM); in assay [21] it was 34.8 µg/mL (≈ 92 µM). Further, the viability at 1.56 µg/mL worked out at 100% in assay [2], 100% in [9] and 94.8% in assay [11]. The viability at 3.125 µg/mL turned out to be 100% in assay [3], 83.9% in assay [12] and 100% in assay [17]. Moreover, the viability at 6.25 µg/mL in [4] stood at 100%; in assay [10], 97.8%; in assay [14] it was 75.7%. For the same molecule, the values for the viability at 12.5 µg/mL in [5], in assay [13] and in [18] were 98.3%, 70% and 91.2%, respectively. Moreover, the values for the viability at 25 µg/mL in [6], in [16] and in assay [19] were 96.3%, 58.9% and 78.4%, respectively. For the same molecule, the values for the viability at 50 µg/mL in [7], in assay [15] and in assay [20] were 91.8%, 39.1% and 42.4%, respectively.

Regarding `Cc1ccc2ccc3c(c2n1)OC(N)=C(C#N)C3c1ccc(Cl)cc1` (centres undefined), the results for the half-inhibitory concentration (IC50) in [1] (setting [22]), in [8] and in assay [21] were 1.8 µg/mL (≈ 5.18 µM), 15.8 µg/mL (≈ 45.4 µM) and 27.9 µg/mL (≈ 80.2 µM), respectively. Also, the values for the viability at 1.56 µg/mL in assay [2], in assay [9] and in assay [11] were 51.9%, 94% and 100%, respectively. Further, the viability at 3.125 µg/mL came to 43% in [3], 87% in assay [12] and 79% in assay [17]. Besides, the viability at 6.25 µg/mL was found to be 37.6% in [4], 66.8% in [10] and 78.2% in assay [14]. Besides, the viability at 12.5 µg/mL was found to be 35.6% in assay [5], 71.4% in assay [13] and 55.6% in [18]. Besides, the viability at 25 µg/mL in assay [6] was found to be 33.7%; in assay [16] it was 58.2%; in assay [19] it was 35.8%. Moreover, the viability at 50 µg/mL in [7] is 23.1%; in assay [15] it was 28%; in assay [20] it was 27.6%.

`Cc1ccc2ccc3c(c2n1)OC(N)=C(C#N)C3c1ccc(Br)cc1` (centres undefined): the results for the IC50 in assay [1] (setting [22]), in assay [8] and in [21] were 5.5 µg/mL (≈ 14 µM), 22.8 µg/mL (≈ 58.1 µM) and 38.9 µg/mL (≈ 99.2 µM), respectively. Moreover, the viability at 1.56 µg/mL in [2] is 77.5%; in assay [9] it was 100%; in [11], 93.9%. Also, the viability at 3.125 µg/mL in [3] was 64%; in assay [12] it was 82.3%; in assay [17], 88%. Further, the viability at 6.25 µg/mL in assay [4] is 44.9%; in assay [10], 66.6%; in assay [14], 75.2%. In addition, the viability at 12.5 µg/mL came to 39.6% in [5], 71.8% in assay [13] and 58.2% in assay [18]. For the same molecule, the results for the viability at 25 µg/mL in [6], in assay [16] and in assay [19] were 29.3%, 62.3% and 48.8%, respectively. Moreover, the values for the viability at 50 µg/mL in [7], in [15] and in assay [20] were 22%, 41.2% and 36.6%, respectively.

As a reminder, the IC50 is the concentration needed to halve the response being measured.
